PubChem BioAssay AID256 (DTP/NCI, 2004)
Where “and” joins values, the source holds several entries; their conditions need not be identical. Identical values can stand only once. Toxic doses and inconclusive results are not listed. How the source made its calls: active means survival T/C of 150% or more; inactive means T/C below 125% in these data.

Test system: CD2F1 mice, L1210 leukemia ip, survival T/C
Test: NCI In Vivo Anticancer Drug Screen. Data for tumor model L1210 Leukemia (intraperitoneal) in CD2F1 (CDF1) mice
Conditions: higher = longer survival
Method in brief: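 Transplantable tumor in mice; compound-treated vs vehicle-treated groups. Read-out = treated/control ratio of the measured endpoint.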

[1] = endpoint: mean survival time, dose: 12.5 mg/kg/injection, schedule: Q01DX009 (ip), vehicle: Klucel (hydroxypropylcellulose) (HPC)
[2] = endpoint: mean survival time, dose: 50.0 mg/kg/injection, schedule: Q01DX009 (ip), vehicle: Klucel (hydroxypropylcellulose) (HPC)
[3] = endpoint: mean survival time, dose: 100.0 mg/kg/injection, schedule: Q01DX009 (ip), vehicle: saline with Tween-80
[4] = endpoint: mean survival time, dose: 100.0 mg/kg/injection, schedule: Q04DX003 (ip), vehicle: saline with Tween-80
[5] = endpoint: mean survival time, dose: 200.0 mg/kg/injection, schedule: Q01DX009 (ip), vehicle: saline with Tween-80
[6] = endpoint: mean survival time, dose: 200.0 mg/kg/injection, schedule: Q04DX003 (ip), vehicle: saline with Tween-80
[7] = endpoint: mean survival time, dose: 400.0 mg/kg/injection, schedule: Q01DX009 (ip), vehicle: saline with Tween-80
[8] = endpoint: mean survival time, dose: 400.0 mg/kg/injection, schedule: Q04DX003 (ip), vehicle: saline with Tween-80
[9] = endpoint: mean survival time, dose: 100.0 mg/kg/injection, schedule: Q01DX009 (ip), vehicle: Klucel (hydroxypropylcellulose) (HPC)
[10] = endpoint: mean survival time, dose: 100.0 mg/kg/injection, schedule: Q01DX001 (ip), vehicle: saline with Tween-80
[11] = endpoint: mean survival time, dose: 200.0 mg/kg/injection, schedule: Q01DX001 (ip), vehicle: saline with Tween-80
[12] = endpoint: mean survival time, dose: 400.0 mg/kg/injection, schedule: Q01DX001 (ip), vehicle: saline with Tween-80
[13] = endpoint: mean survival time, dose: 75.0 mg/kg/injection, schedule: Q01DX001 (ip), vehicle: saline
[14] = endpoint: mean survival time, dose: 100.0 mg/kg/injection, schedule: Q04DX002 (ip), vehicle: saline with Tween-80
[15] = endpoint: mean survival time, dose: 200.0 mg/kg/injection, schedule: Q04DX002 (ip), vehicle: saline with Tween-80
[16] = endpoint: mean survival time, dose: 400.0 mg/kg/injection, schedule: Q04DX002 (ip), vehicle: saline with Tween-80

Measured: T/C

CCOP(OCC)SSCn1nc2ccc3ccccc3n2c1=O
inactive: [1] 100 % of control | endpoint: mean survival time, dose: 25.5 mg/kg/injection, schedule: Q01DX009 (ip), vehicle: Klucel (hydroxypropylcellulose) (HPC) 95 % of control | [2] 113 % of control

Cc1ccc(NC(=O)c2ccccc2C(=O)O)c(C)c1
inactive: [3] 109 % of control | [4] 95 % of control | [5] 96 % of control | [6] 109 % of control | [7] 115 % of control | [8] 103 % of control

Cc1cc(N(CCOS(C)(=O)=O)CCOS(C)(=O)=O)ccc1C=Nc1ccc(-c2nc(Cc3ccccc3)sc2C)cc1
inactive: [1] 103 % of control and 106 % of control | endpoint: mean survival time, dose: 25.0 mg/kg/injection, schedule: Q01DX009 (ip), vehicle: Klucel (hydroxypropylcellulose) (HPC) 117 % of control and 124 % of control | [2] 117 % of control and 111 % of control | [9] 118 % of control and 120 % of control | endpoint: mean survival time, dose: 200.0 mg/kg/injection, schedule: Q01DX009 (ip), vehicle: Klucel (hydroxypropylcellulose) (HPC) 110 % of control | endpoint: mean survival time, dose: 400.0 mg/kg/injection, schedule: Q01DX009 (ip), vehicle: Klucel (hydroxypropylcellulose) (HPC) 103 % of control

O=C1N(Cc2ccccc2)CC2C(c3ccccc3)NNC12O (centres undefined)
inactive: [4] 89 % of control | [8] 101 % of control

O=C(O)Cc1ccccc1[N+](=O)[O-]
inactive: [10] 106 % of control | [11] 101 % of control | [12] 101 % of control

CCOC(=O)Nc1cc2ncc(C(=O)N(C)c3ccccc3)nc2c(N)n1
inactive: [10] 98 % of control | [11] 88 % of control | [12] 98 % of control

COc1ccc2c(c1O)CNCC2c1ccc(O)c(O)c1 (centres undefined)
inactive: [13] 106 % of control | endpoint: mean survival time, dose: 150.0 mg/kg/injection, schedule: Q01DX001 (ip), vehicle: saline 106 % of control | endpoint: mean survival time, dose: 300.0 mg/kg/injection, schedule: Q01DX001 (ip), vehicle: saline 108 % of control

COC(=O)C1C2CC(=O)C(C2)C1C(=O)OC (centres undefined)
inactive: [3] 93 % of control | [5] 99 % of control | [7] 93 % of control

CC[CH2][Sn]([Cl])([Cl])[CH2]CC.Oc1ccccc1C=NCCN=Cc1ccccc1O
inactive: endpoint: mean survival time, dose: 0.62 mg/kg/injection, schedule: Q01DX009 (ip), vehicle: gum acacia 100 % of control | endpoint: mean survival time, dose: 1.25 mg/kg/injection, schedule: Q01DX009 (ip), vehicle: gum acacia 100 % of control | endpoint: mean survival time, dose: 2.5 mg/kg/injection, schedule: Q01DX009 (ip), vehicle: gum acacia 97 % of control and 103 % of control | endpoint: mean survival time, dose: 3.3 mg/kg/injection, schedule: Q01DX009 (ip), vehicle: saline with Tween-80 103 % of control | endpoint: mean survival time, dose: 5.0 mg/kg/injection, schedule: Q01DX001 (ip), vehicle: saline with Tween-80 94 % of control | endpoint: mean survival time, dose: 5.0 mg/kg/injection, schedule: Q01DX009 (ip), vehicle: gum acacia 104 % of control and 108 % of control | endpoint: mean survival time, dose: 5.0 mg/kg/injection, schedule: Q01DX009 (ip), vehicle: saline with Tween-80 92 % of control | endpoint: mean survival time, dose: 7.5 mg/kg/injection, schedule: Q01DX009 (ip), vehicle: saline with Tween-80 95 % of control | endpoint: mean survival time, dose: 10.0 mg/kg/injection, schedule: Q01DX001 (ip), vehicle: saline with Tween-80 95 % of control | endpoint: mean survival time, dose: 20.0 mg/kg/injection, schedule: Q01DX001 (ip), vehicle: saline with Tween-80 96 % of control

COc1cc2c(cc1OC)C(=O)C(C)(c1ccccc1)NC2 (centres undefined)
inactive: [4] 96 % of control | [6] 96 % of control | [8] 94 % of control

S=C(NCc1ccccc1)Nc1ncn[nH]1
inactive: endpoint: mean survival time, dose: 12.5 mg/kg/injection, schedule: Q01DX001 (ip), vehicle: carboxymethylcellulose (CMC) 97 % of control | endpoint: mean survival time, dose: 25.0 mg/kg/injection, schedule: Q01DX001 (ip), vehicle: carboxymethylcellulose (CMC) 89 % of control | endpoint: mean survival time, dose: 50.0 mg/kg/injection, schedule: Q01DX001 (ip), vehicle: carboxymethylcellulose (CMC) 86 % of control | endpoint: mean survival time, dose: 100.0 mg/kg/injection, schedule: Q01DX001 (ip), vehicle: carboxymethylcellulose (CMC) 86 % of control

NCS(=O)(=O)O
inactive: [10] 98 % of control

CC12CCC(c3cn(C(=O)c4cccnc4)nc31)C2(C)C (centres undefined)
inactive: [2] 102 % of control | [9] 94 % of control

Cc1cccc(C)c1NC(=O)/C=C/c1ccccc1
inactive: [14] 94 % of control | [15] 90 % of control | [16] 98 % of control

CC/C(=C(/CC)c1ccc(OP(N)(=O)N(CCCl)CCCl)cc1)c1ccc(OP(N)(=O)N(CCCl)CCCl)cc1 (centres undefined)
inactive: endpoint: mean survival time, dose: 90.0 mg/kg/injection, schedule: Q01DX001 (ip), vehicle: DMSO 100 % of control | endpoint: mean survival time, dose: 133.0 mg/kg/injection, schedule: Q01DX001 (ip), vehicle: DMSO 98 % of control | endpoint: mean survival time, dose: 200.0 mg/kg/injection, schedule: Q01DX001 (ip), vehicle: DMSO 102 % of control | endpoint: mean survival time, dose: 300.0 mg/kg/injection, schedule: Q01DX001 (ip), vehicle: DMSO 113 % of control

N#CC(c1ccc(N)cc1)C(CC(=O)c1ccccc1)c1ccccc1 (centres undefined)
inactive: [14] 87 % of control and 95 % of control | [15] 91 % of control | [16] 87 % of control and 95 % of control

C[N+]1(C)CCc2cc(O)c(O)cc2C1Cc1ccc(O)c(O)c1 (centres undefined)
inactive: [13] 102 % of control

Cc1cc(Cl)nc(N)n1
inactive: endpoint: mean survival time, dose: 100.0 mg/kg/injection, schedule: Q04DX002 (ip), vehicle: Klucel (hydroxypropylcellulose) (HPC) 90 % of control | endpoint: mean survival time, dose: 200.0 mg/kg/injection, schedule: Q04DX002 (ip), vehicle: Klucel (hydroxypropylcellulose) (HPC) 86 % of control

NC(=S)NC(=S)Nc1ccc(Cl)cc1
inactive: endpoint: mean survival time, dose: 25.0 mg/kg/injection, schedule: Q04DX002 (ip), vehicle: saline with Tween-80 98 % of control | endpoint: mean survival time, dose: 50.0 mg/kg/injection, schedule: Q04DX002 (ip), vehicle: saline with Tween-80 98 % of control | [14] 98 % of control

O=C(Cc1ccccc1)C(Br)C(Br)c1ccccc1 (centres undefined)
inactive: endpoint: mean survival time, dose: 25.0 mg/kg/injection, schedule: Q01DX009 (ip), vehicle: saline with Tween-80 107 % of control | [4] 92 % of control

C=CCC12CCCCC1=CC(=O)CC2 (centres undefined)
inactive: [4] 97 % of control | [6] 100 % of control | [8] 102 % of control

CC(O)/C=C/c1ccccc1O (centres undefined)
inactive: [4] 90 % of control | [6] 96 % of control | [8] 93 % of control

CCOC(=O)CC1CCCCC1CC(=O)OCC (centres undefined)
inactive: endpoint: mean survival time, dose: 37.5 mg/kg/injection, schedule: Q01DX009 (ip), vehicle: saline 95 % of control | endpoint: mean survival time, dose: 75.0 mg/kg/injection, schedule: Q01DX009 (ip), vehicle: saline 98 % of control | endpoint: mean survival time, dose: 75.0 mg/kg/injection, schedule: Q04DX003 (ip), vehicle: saline 97 % of control | endpoint: mean survival time, dose: 150.0 mg/kg/injection, schedule: Q01DX009 (ip), vehicle: saline 100 % of control | endpoint: mean survival time, dose: 150.0 mg/kg/injection, schedule: Q04DX003 (ip), vehicle: saline 103 % of control | endpoint: mean survival time, dose: 300.0 mg/kg/injection, schedule: Q04DX003 (ip), vehicle: saline 101 % of control

CCCCCCCCCSc1nc2ccccc2s1
inactive: [14] 87 % of control | [15] 97 % of control | [16] 93 % of control

CNC(=O)O/N=C(\CN=[N+]=[N-])C(C)(C)C
inactive: endpoint: median survival time, dose: 0.25 mg/kg/injection, schedule: Q01DX009 (ip), vehicle: saline 102 % of control | endpoint: median survival time, dose: 0.5 mg/kg/injection, schedule: Q01DX009 (ip), vehicle: saline 96 % of control | endpoint: median survival time, dose: 1.0 mg/kg/injection, schedule: Q01DX009 (ip), vehicle: saline 103 % of control

CC(C)(C)N1OC1c1ccccc1 (centres undefined)
inactive: endpoint: mean survival time, dose: 100.0 mg/kg/injection, schedule: Q01DX001 (ip), vehicle: saline 103 % of control | endpoint: mean survival time, dose: 200.0 mg/kg/injection, schedule: Q01DX001 (ip), vehicle: saline 105 % of control | endpoint: mean survival time, dose: 400.0 mg/kg/injection, schedule: Q01DX001 (ip), vehicle: saline 97 % of control

COc1cc(CC#N)ccc1C
inactive: endpoint: mean survival time, dose: 12.5 mg/kg/injection, schedule: Q04DX003 (ip), vehicle: acetone 97 % of control | endpoint: mean survival time, dose: 25.0 mg/kg/injection, schedule: Q04DX003 (ip), vehicle: acetone 101 % of control | endpoint: mean survival time, dose: 50.0 mg/kg/injection, schedule: Q04DX003 (ip), vehicle: acetone 102 % of control

ClC1(Cl)C2COCOCC21 (centres undefined)
inactive: [10] 91 % of control | [11] 91 % of control | [12] 95 % of control
